For experiment [1], the target named is wild type (wt) BA2930 (Bacillus anthracis, UniProt A0A3P1UCA6). In kind it is binding.
Experiment [2] has as its system BA2930. In kind it is biochemical, Bacillus anthracis str. Ames. As to conditions: pH 7.5.

wild type (wt) BA2930, sequence (A0A3P1UCA6 1-265): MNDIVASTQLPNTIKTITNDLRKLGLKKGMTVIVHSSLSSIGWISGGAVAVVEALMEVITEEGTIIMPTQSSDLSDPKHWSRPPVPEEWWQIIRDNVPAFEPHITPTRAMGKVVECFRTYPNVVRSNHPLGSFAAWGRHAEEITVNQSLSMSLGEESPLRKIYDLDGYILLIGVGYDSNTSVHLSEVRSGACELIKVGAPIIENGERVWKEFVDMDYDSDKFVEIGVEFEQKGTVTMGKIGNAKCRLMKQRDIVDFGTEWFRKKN

For the molecule `CC(=O)SCCNC(=O)CCNC(=O)[C@H](O)C(C)(C)COP(=O)(O)OP(=O)(O)OC[C@H]1O[C@@H](n2cnc3c(N)ncnc32)[C@H](O)[C@@H]1OP(=O)(O)O` [AcCoA, Acetyl Coenzyme A], in experiment [1], the “N (stoichiometry)” value was determined as 1.140±0.013, the ΔH was -21.71 ± 0.46 kcal/mol and the “−TΔS” value was -15.61 kcal/mol. Besides, the Kd in experiment [1] (pH 7.5) was 33.4 ± 2.53 µM.
`NCC[C@H](O)C(=O)N[C@@H]1C[C@H](N)[C@@H](O[C@H]2O[C@H](CN)[C@@H](O)[C@H](O)[C@H]2O)[C@H](O)[C@H]1O[C@H]1O[C@H](CO)[C@@H](O)[C@H](N)[C@H]1O` [Amikacin]: the “chemical modification by the enzyme (TLC)” value in experiment [2] is “modified by the enzyme”.
For `CC(C)(COP(=O)(O)OP(=O)(O)OC[C@H]1O[C@@H](n2cnc3c(N)ncnc32)[C@H](O)[C@@H]1OP(=O)(O)O)[C@@H](O)C(=O)NCCC(=O)NCCS` [CoA, Coenzyme A], in experiment [1], the “N (stoichiometry)” value is reported as 1.000±0.031, the ΔH was -12.47 ± 0.53 kcal/mol and the “−TΔS” value is -5.36 kcal/mol.
Turning to `NC[C@H]1O[C@H](O[C@H]2[C@H](O)[C@@H](O[C@H]3O[C@H](CO)[C@@H](O)[C@H](N)[C@H]3O)[C@H](N)C[C@@H]2N)[C@H](O)[C@@H](O)[C@@H]1O` [kanamycin], in experiment [2], the “chemical modification by the enzyme (TLC)” value is “modified by the enzyme”.
Same read-out and setting: as for `NC[C@H]1O[C@H](O[C@H]2[C@H](O)[C@@H](O[C@H]3O[C@H](CO)[C@@H](O)[C@H](N)[C@H]3O)[C@H](N)C[C@@H]2N)[C@H](N)C[C@@H]1O` [tobramycin], the entry is “modified by the enzyme”.

The record behind these values is paper PMC3131501 (Journal of molecular biology, 2011).
